Experimental data: US20240409585A1, “MACROCYCLIC IMMUNOMODULATORS” (priority 2021, published 2024)
Bridge positions count the residues as written; N and C are the ends. Square brackets hold non-standard residues; d marks the D form. Peptide text beside a SMILES is read from it. * marks the point of attachment. ξ: configuration not given here. Ala(morpholin-4-yl) = N[C@@H](CN1CCOCC1)C(=O)O; Phe(4-COOH) = N[C@@H](Cc1ccc(C(=O)O)cc1)C(=O)O; Bip = N[C@@H](Cc1ccc(-c2ccccc2)cc1)C(=O)O; Ala(2-furyl) = N[C@@H](Cc1ccco1)C(=O)O; Phe(3-Me) = Cc1cccc(C[C@H](N)C(=O)O)c1; Phe(2-F) = N[C@@H](Cc1ccccc1F)C(=O)O; Phe(2-Me) = Cc1ccccc1C[C@H](N)C(=O)O; Val(3-OH) = CC(C)(O)[C@H](N)C(=O)O; 3Pal = N[C@@H](Cc1cccnc1)C(=O)O; 4Pal = N[C@@H](Cc1ccncc1)C(=O)O; 3Thi = N[C@@H](Cc1ccsc1)C(=O)O; Cha = N[C@@H](CC1CCCCC1)C(=O)O; Thr(3ξ) = CC(O)[C@H](N)C(=O)O; Carboxymethyl = O=C(O)C*; NMeA = CN[C@@H](C)C(=O)O; Nle = CCCC[C@H](N)C(=O)O; Orn = NCCC[C@H](N)C(=O)O; Dab = NCC[C@H](N)C(=O)O; Dap = NC[C@H](N)C(=O)O

Target: T1, PE-labeled human PD-L1-Ig binding to Jurkat cell line over-expressing human PD-1 (Jurkat-PD-1) (Homo sapiens, UniProt Q15116)
T1 construct: expressed in transfected cells; host or cells: Jurkat
Assay: Jurkat-PD-1 Cell Binding High-Content Screening Assay (CBA): Method 1
Details: Jurkat HPDL1 PD1 IC50 (uM) (Method 1), Jurkat-hPD-1 cells, PE-labeled PD-L1-Ig 20 nM final

T1 sequence (Q15116 25-288): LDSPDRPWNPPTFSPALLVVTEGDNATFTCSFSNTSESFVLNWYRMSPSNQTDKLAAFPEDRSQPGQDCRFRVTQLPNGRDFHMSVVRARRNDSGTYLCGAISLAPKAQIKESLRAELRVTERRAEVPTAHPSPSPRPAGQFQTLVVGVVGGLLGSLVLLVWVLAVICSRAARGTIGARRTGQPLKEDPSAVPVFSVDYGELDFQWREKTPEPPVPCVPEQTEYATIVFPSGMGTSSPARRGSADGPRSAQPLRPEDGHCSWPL

Row | Compound | IC50 [µM]
1 | Cc1cccc(C[C@@H]2NC(=O)[C@H](CC(=O)O)NC(=O)[C@H](Cc3ccc(OCC(=O)O)cc3)NC(=O)[C@H](Cc3ccncc3)NC(=O)CSC[C@@H](C(=O)N[C@@H](C)C(N)=O)NC(=O)[C@H](CO)NC(=O)[C@H](Cc3ccccc3)NC(=O)[C@H](CC(C)C)NC(=O)[C@H](CC(N)=O)NC(=O)[C@@H](CC(C)C)NC(=O)[C@H](C)N(C)C(=O)[C@H](Cc3ccccc3)NC(=O)[C@H](Cc3ccc(-c4ccccc4)cc3)NC(=O)[C@H](CC(C)C)NC2=O)c1 [Compound 1588] ({CH2CO}-[4Pal]Y(Carboxymethyl)D[Phe(3-Me)]L[Bip]F[NMeA][dL]NLFSCA-NH2; thioether N-14) | 0.32

Same assay, conditions: Jurkat-hPD-1 cells, PE-labeled PD-L1-Ig 20 nM final; read-out: Jurkat HPDL1 PD1 IC50 (uM) (Method 1)

Row | Compound | IC50 [µM]
2 | Cc1cccc(C[C@@H]2NC(=O)[C@H](CC(=O)O)NC(=O)[C@H](Cc3ccc(OCC(=O)O)cc3)NC(=O)[C@H](Cc3ccncc3)NC(=O)CSC[C@@H](C(=O)N[C@H](C)C(N)=O)NC(=O)[C@H](CO)NC(=O)[C@H](C(C)(C)O)NC(=O)[C@H](CC3CCCCC3)NC(=O)[C@H](CCN)NC(=O)[C@@H](CC(C)C)NC(=O)[C@H](C)N(C)C(=O)[C@H](Cc3ccc(OCC(=O)O)cc3)NC(=O)[C@H](Cc3ccc(-c4ccccc4)cc3)NC(=O)[C@H](Cc3ccc(C(=O)O)cc3)NC2=O)c1 [Compound 2183] ({CH2CO}-[4Pal]Y(Carboxymethyl)D[Phe(3-Me)][Phe(4-COOH)][Bip]Y(Carboxymethyl)[NMeA][dL][Dab][Cha][Val(3-OH)]SC[dA]-NH2; thioether N-14) | 0.11
3 | CC(C)C[C@@H]1NC(=O)[C@H](CCN)NC(=O)[C@@H](CC(C)C)NC(=O)[C@H](C)N(C)C(=O)[C@H](CC(C)C)NC(=O)[C@H](Cc2ccc(-c3ccccc3)cc2)NC(=O)[C@H](C(C)C)NC(=O)[C@H](Cc2c[nH]c3ccccc23)NC(=O)[C@H](CC(=O)O)NC(=O)[C@H](Cc2ccc(O)cc2)NC(=O)[C@H](CC(N)=O)NC(=O)CSC[C@@H](C(=O)N[C@@H](C)C(N)=O)NC(=O)[C@H]([C@@H](C)O)NC(=O)[C@H](C(C)C)NC1=O [Compound 1270] ({CH2CO}-NYDWV[Bip]L[NMeA][dL][Dab]LVTCA-NH2; thioether N-14) | 0.11
4 | CC(C)C[C@@H]1NC(=O)[C@H](CCN)NC(=O)[C@@H](CC(C)C)NC(=O)[C@H](C)N(C)C(=O)[C@H](CCCNC(=N)N)NC(=O)[C@H](Cc2ccc(-c3ccccc3)cc2)NC(=O)[C@H](C(C)C)NC(=O)[C@H](Cc2c[nH]c3ccccc23)NC(=O)[C@H](CC(=O)O)NC(=O)[C@H](Cc2ccc(O)cc2)NC(=O)[C@H](Cc2ccccc2)NC(=O)CSC[C@@H](C(=O)N[C@@H](CCC(=O)O)C(N)=O)NC(=O)[C@H]([C@@H](C)O)NC(=O)[C@H](C(C)C)NC1=O [Compound 1175] ({CH2CO}-FYDWV[Bip]R[NMeA][dL][Dab]LVTCE-NH2; thioether N-14) | 0.12
5 | Cc1cccc(C[C@@H]2NC(=O)[C@H](CC(=O)O)NC(=O)[C@H](Cc3ccc(OCC(=O)O)cc3)NC(=O)[C@H](CN3CCOCC3)NC(=O)CSC[C@@H](C(=O)N[C@@H](CCN)C(N)=O)NC(=O)[C@H](CCCN)NC(=O)[C@H](C(C)C)NC(=O)[C@H](Cc3ccccc3F)NC(=O)[C@H](CCN)NC(=O)[C@@H](CC(C)C)NC(=O)[C@H](C)N(C)C(=O)[C@H](CCC(N)=O)NC(=O)[C@H](Cc3ccc(-c4ccccc4)cc3)NC(=O)[C@H](Cc3ccc(C(=O)O)cc3)NC2=O)c1 [Example 2296] ({CH2CO}-[Ala(morpholin-4-yl)]Y(Carboxymethyl)D[Phe(3-Me)][Phe(4-COOH)][Bip]Q[NMeA][dL][Dab][Phe(2-F)]V[Orn]C[Dab]-NH2; thioether N-14) | 0.44
6 | CC(C)C[C@@H]1NC(=O)[C@H](CCCNC(=N)N)NC(=O)[C@@H](CC(N)=O)NC(=O)[C@H](C)N(C)C(=O)[C@H](CCCNC(=N)N)NC(=O)[C@H](Cc2ccc(-c3ccccc3)cc2)NC(=O)[C@H](C(C)C)NC(=O)[C@H](Cc2c[nH]c3ccccc23)NC(=O)[C@H](CC(=O)O)NC(=O)[C@H](Cc2ccc(O)cc2)NC(=O)[C@H](Cc2ccccc2)NC(=O)CSC[C@@H](C(=O)NCC(N)=O)NC(=O)[C@H](CO)NC(=O)[C@H](C(C)C)NC1=O [Compound 1019] ({CH2CO}-FYDWV[Bip]R[NMeA][dN]RLVSCG-NH2; thioether N-14) | 0.36
7 | Cc1ccccc1C[C@@H]1NC(=O)[C@H](Cc2ccccc2)NC(=O)CSC[C@@H](C(=O)N[C@@H](C)C(N)=O)NC(=O)[C@H](CO)NC(=O)[C@H](C(C)C)NC(=O)[C@H](CC(C)C)NC(=O)[C@H](CC(N)=O)NC(=O)[C@@H](C)NC(=O)[C@H](C)N(C)C(=O)[C@H](C(C)C)NC(=O)[C@H](Cc2ccc(-c3ccccc3)cc2)NC(=O)[C@H](CC(C)C)NC(=O)[C@H](Cc2c[nH]c3ccccc23)NC(=O)[C@H](CC(=O)O)NC1=O [Compound 1794] ({CH2CO}-F[Phe(2-Me)]DWL[Bip]V[NMeA][dA]NLVSCA-NH2; thioether N-14) | 0.15
8 | CC(C)C[C@@H]1NC(=O)[C@H](CCCN)NC(=O)[C@@H](CC(C)C)NC(=O)[C@H](C)N(C)C(=O)[C@H](CCCNC(=N)N)NC(=O)[C@H](Cc2ccc(-c3ccccc3)cc2)NC(=O)[C@H](C(C)C)NC(=O)[C@H](Cc2c[nH]c3ccccc23)NC(=O)[C@H](CC(=O)O)NC(=O)[C@H](Cc2ccc(OCC(=O)O)cc2)NC(=O)[C@H](CC(N)=O)NC(=O)CSC[C@@H](C(=O)N[C@@H](C)C(N)=O)NC(=O)[C@H]([C@@H](C)O)NC(=O)[C@H](C(C)C)NC1=O [Compound 1152] ({CH2CO}-NY(Carboxymethyl)DWV[Bip]R[NMeA][dL][Orn]LVTCA-NH2; thioether N-14) | 0.08
9 | Cc1cccc(C[C@@H]2NC(=O)[C@H](CC(=O)O)NC(=O)[C@H](Cc3ccc(OCC(=O)O)cc3)NC(=O)[C@H](C(C)O)NC(=O)CSC[C@@H](C(=O)N[C@H](CC(N)=O)C(N)=O)NC(=O)[C@H](CO)NC(=O)[C@H](C(C)(C)O)NC(=O)[C@H](CC3CCCCC3)NC(=O)[C@H](CCN)NC(=O)[C@@H](CC(C)C)NC(=O)[C@H](C)N(C)C(=O)[C@H](Cc3ccc(O)cc3)NC(=O)[C@H](Cc3ccc(-c4ccccc4)cc3)NC(=O)[C@H](Cc3ccc(O)cc3)NC2=O)c1 (stereo partly drawn) [Compound 2142] ({CH2CO}-[Thr(3ξ)]Y(Carboxymethyl)D[Phe(3-Me)]Y[Bip]Y[NMeA][dL][Dab][Cha][Val(3-OH)]SC[dN]-NH2; thioether N-14) | 0.18

The next lines start with the values.

Row | IC50 [µM] | Compound
10 | 0.01 | CC(=O)NCCCC[C@@H]1NC(=O)[C@H](C(C)C)NC(=O)[C@H](CC2CCCCC2)NC(=O)[C@H](CCN)NC(=O)[C@@H](CC(C)C)NC(=O)[C@H](C)N(C)C(=O)[C@H](CCC(N)=O)NC(=O)[C@H](Cc2ccc(-c3ccccc3)cc2)NC(=O)[C@H](C(C)C)NC(=O)[C@H](Cc2c[nH]c3ccccc23)NC(=O)[C@H](CC(=O)O)NC(=O)[C@H](Cc2ccc(OCC(=O)O)cc2)NC(=O)[C@H](Cc2ccsc2)NC(=O)CSC[C@@H](C(=O)N[C@@H](CCN)C(N)=O)NC1=O [Compound 2127] ({CH2CO}-[3Thi]Y(Carboxymethyl)DWV[Bip]Q[NMeA][dL][Dab][Cha]VK(Ac)C[Dab]-NH2; thioether N-14)
11 | 0.08 | CCCC[C@@H]1NC(=O)[C@H](CCCNC(=N)N)NC(=O)[C@@H](CC(C)C)NC(=O)[C@H](C)N(C)C(=O)[C@H](C(C)C)NC(=O)[C@H](Cc2ccc(-c3ccccc3)cc2)NC(=O)[C@H](C(C)C)NC(=O)[C@H](Cc2c[nH]c3ccccc23)NC(=O)[C@H](CC(=O)O)NC(=O)[C@H](Cc2ccc(O)cc2)NC(=O)[C@H](CN)NC(=O)CSC[C@@H](C(=O)N[C@@H](C)C(N)=O)NC(=O)[C@H]([C@@H](C)O)NC(=O)[C@H](C(C)C)NC1=O [Compound 1500] ({CH2CO}-[Dap]YDWV[Bip]V[NMeA][dL]R[Nle]VTCA-NH2; thioether N-14)
12 | 0.03 | CC(C)C[C@@H]1NC(=O)[C@H](Cc2c[nH]c3ccccc23)NC(=O)[C@H](CC(=O)O)NC(=O)[C@H](Cc2ccc(C(=O)O)cc2)NC(=O)[C@H](Cc2cnc[nH]2)NC(=O)CSC[C@@H](C(=O)N[C@@H](C)C(N)=O)NC(=O)[C@H](CO)NC(=O)[C@H](C(C)C)NC(=O)[C@H](CC(C)C)NC(=O)[C@H](CC(N)=O)NC(=O)[C@@H](C)NC(=O)[C@H](C)N(C)C(=O)[C@H](C(C)C)NC(=O)[C@H](Cc2ccc(-c3ccccc3)cc2)NC1=O [Compound 1760] ({CH2CO}-H[Phe(4-COOH)]DWL[Bip]V[NMeA][dA]NLVSCA-NH2; thioether N-14)
13 | 0.02 | Cc1cccc(C[C@@H]2NC(=O)[C@H](CC(=O)O)NC(=O)[C@H](Cc3cccnc3)NC(=O)[C@H](CN)NC(=O)CSC[C@@H](C(=O)N[C@@H](C)C(N)=O)NC(=O)[C@H](CO)NC(=O)[C@H](C(C)C)NC(=O)[C@H](CC(C)C)NC(=O)[C@H](CC(N)=O)NC(=O)[C@@H](C)NC(=O)[C@H](C)N(C)C(=O)[C@H](C(C)C)NC(=O)[C@H](Cc3ccc(-c4ccccc4)cc3)NC(=O)[C@H](CC(C)C)NC2=O)c1 [Compound 1584] ({CH2CO}-[Dap][3Pal]D[Phe(3-Me)]L[Bip]V[NMeA][dA]NLVSCA-NH2; thioether N-14)
14 | 0.02 | CC(C)C[C@@H]1NC(=O)[C@H](Cc2c[nH]c3ccccc23)NC(=O)[C@H](CC(=O)O)NC(=O)[C@H](Cc2ccc(O)cc2)NC(=O)[C@H](Cc2ccccc2)NC(=O)CSC[C@@H](C(=O)NCC(N)=O)NC(=O)[C@H]([C@@H](C)O)NC(=O)[C@H](C(C)C)NC(=O)[C@H](CC(C)C)NC(=O)[C@H](CCN)NC(=O)[C@@H](C)NC(=O)[C@H](C)N(C)C(=O)[C@H](C(C)C)NC(=O)[C@H](Cc2ccc(-c3ccccc3)cc2)NC1=O [Compound 1477] ({CH2CO}-FYDWL[Bip]V[NMeA][dA][Dab]LVTCG-NH2; thioether N-14)
15 | 0.01 | CC(C)C[C@@H]1NC(=O)[C@H](Cc2c[nH]c3ccccc23)NC(=O)[C@H](CC(=O)O)NC(=O)[C@H](Cc2ccco2)NC(=O)[C@H](Cc2ccccc2)NC(=O)CSC[C@@H](C(=O)N[C@@H](C)C(N)=O)NC(=O)[C@H](CO)NC(=O)[C@H](C(C)C)NC(=O)[C@H](CC(C)C)NC(=O)[C@H](CC(N)=O)NC(=O)[C@@H](C)NC(=O)[C@H](C)N(C)C(=O)[C@H](C(C)C)NC(=O)[C@H](Cc2ccc(-c3ccccc3)cc2)NC1=O [Compound 1734] ({CH2CO}-F[Ala(2-furyl)]DWL[Bip]V[NMeA][dA]NLVSCA-NH2; thioether N-14)
